Assay results: the supplement of paper PMC10307832

Experiments:
Assay in all cases: relative viability (nuclei count vs DMSO), 5 days (fraction); higher = more cells survive
Axitinib + Vorinostat = compound: CNC(=O)c1ccccc1Sc1ccc2c(/C=C/c3ccccn3)n[nH]c2c1 [Axitinib] + O=C(CCCCCCC(=O)Nc1ccccc1)NO [Vorinostat] (partner 1 µM)
Summary of the method: (§1)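 Lung cancer cell lines in 1536-well plates were dosed by pin tool the day after seeding, either with one drug alone or with a fixed anchor-drug dose plus five library-drug doses (not always all listed) in √10 steps. After 5 days, cells were fixed and their nuclei stained in one step (final 0.05% Triton X-100, 1% formaldehyde, 1 ug/ml Hoechst), then counted on 4× images. Relative viability is the nuclei count in treated wells divided by that in vehicle wells. Values are medians of duplicate plates.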

[1] = compound: CC1=CC=C(C=C1)C(=O)CN2C3=C(CCCC3)SC2=N [Pifithrin_alpha] + CCNC(=O)c1noc(-c2cc(C(C)C)c(O)cc2O)c1-c1ccc(CN2CCOCC2)cc1 [Luminespib] (partner 0.01 µM)
Summary of the method: as §1

Axitinib + Decitabine = compound: CNC(=O)c1ccccc1Sc1ccc2c(/C=C/c3ccccn3)n[nH]c2c1 [Axitinib] + Nc1ncn([C@H]2C[C@H](O)[C@@H](CO)O2)c(=O)n1 [Decitabine] (partner 2 µM)
Summary of the method: as §1

Bemcentinib + Bortezomib = compound: Nc1nc(Nc2ccc3c(c2)CC[C@@H](N2CCCC2)CC3)nn1-c1cc2c(nn1)-c1ccccc1CCC2 [Bemcentinib] + CC(C)C[C@H](NC(=O)[C@H](Cc1ccccc1)NC(=O)c1cnccn1)B(O)O [Bortezomib] (partner 0.002 µM)
Summary of the method: as §1

| Cell Line | relative viability (Axitinib + Vorinostat; first compound 0.005 µM) | relative viability (Axitinib + Vorinostat; first compound 0.01581 µM) | relative viability (Axitinib + Vorinostat; first compound 0.05 µM) | relative viability (Axitinib + Vorinostat; first compound 0.1581 µM) | relative viability (Axitinib + Vorinostat; first compound 0.5 µM) | relative viability ([1]; first compound 1 µM) | relative viability ([1]; first compound 3.162 µM) | relative viability ([1]; first compound 10 µM) | relative viability ([1]; first compound 31.62 µM) | relative viability ([1]; first compound 100 µM) | relative viability (Axitinib + Decitabine; first compound 0.005 µM) | relative viability (Axitinib + Decitabine; first compound 0.01581 µM) | relative viability (Axitinib + Decitabine; first compound 0.05 µM) | relative viability (Axitinib + Decitabine; first compound 0.1581 µM) | relative viability (Axitinib + Decitabine; first compound 0.5 µM) | relative viability (Bemcentinib + Bortezomib; first compound 0.04 µM) | relative viability (Bemcentinib + Bortezomib; first compound 0.1265 µM) | relative viability (Bemcentinib + Bortezomib; first compound 0.4 µM) | relative viability (Bemcentinib + Bortezomib; first compound 1.265 µM) | relative viability (Bemcentinib + Bortezomib; first compound 4 µM) |
| --- | --- | --- | --- | --- | --- | --- | --- | --- | --- | --- | --- | --- | --- | --- | --- | --- | --- | --- | --- | --- |
| LCLC-97TM1 | 0.889 | 0.734 | 0.756 | 0.804 | 0.766 | 0.742 | 0.783 | 0.774 | 0.423 | 0.808 | 0.193 | 0.275 | 0.266 | 0.247 | 0.234 | 0.571 | 0.794 | 0.703 | 0.602 | 0.473 |
| LCLC-103H | 0.767 | 0.801 | 0.808 | 0.75 | 0.759 | 0.947 | 0.994 | 0.894 | 0.789 | 0.996 | 0.738 | 0.719 | 0.738 | 0.801 | 0.797 | 1.06 | 1.03 | 1.09 | 1.1 | 1.01 |
| LOU-NH91 | 0.966 | 0.765 | 1.01 | 0.875 | 0.939 | 0.322 | 0.261 | 0.308 | 0.315 | 0.296 | 0.852 | 0.645 | 0.813 | 0.749 | 0.851 | 0.429 | 0.503 | 0.493 | 0.487 | 0.407 |
| LU99A | 0.514 | 0.472 | 0.56 | 0.465 | 0.409 | 0.304 | 0.302 | 0.244 | 0.206 | 0.281 | 0.719 | 0.987 | 0.761 | 0.905 | 0.857 | 1.11 | 1.12 | 1.01 | 1.25 | 1.2 |
| LXF-289 | 0.777 | 0.74 | 0.791 | 0.716 | 0.732 | 0.676 | 0.589 | 0.789 | 0.469 | 0.697 | 0.388 | 0.398 | 0.353 | 0.362 | 0.395 | 1.02 | 1.06 | 1.03 | 1.06 | 1.07 |
| NCI-H23 | 0.644 | 0.51 | 0.674 | 0.583 | 0.667 | 0.231 | 0.218 | 0.206 | 0.205 | 0.187 | 0.327 | 0.311 | 0.346 | 0.299 | 0.325 | 1.16 | 1.14 | 1.01 | 1.17 | 1.14 |
| NCI-H322M | 0.908 | 0.836 | 0.827 | 0.767 | 0.962 | 0.865 | 0.868 | 0.841 | 0.647 | 0.766 | 0.715 | 0.667 | 0.673 | 0.675 | 0.686 | 1.25 | 1.25 | 1.23 | 1.34 | 1.34 |
| NCI-H441 | 0.78 | 0.659 | 0.855 | 0.627 | 0.911 | 0.355 | 0.369 | 0.383 | – | 0.464 | 0.233 | 0.217 | 0.253 | 0.21 | 0.27 | 0.923 | 0.689 | 0.455 | 0.407 | 0.507 |
| NCI-H460 | 0.758 | 0.772 | 0.734 | 0.732 | 0.914 | 0.0365 | 0.032 | 0.0293 | 0.0251 | 0.0317 | 0.585 | 0.464 | 0.528 | 0.535 | 0.585 | 1.24 | 1.54 | 1.66 | 1.25 | 1.15 |
| NCI-H520 | 0.797 | 0.678 | 0.686 | 0.691 | 0.801 | 0.213 | 0.21 | 0.24 | – | 0.223 | 0.527 | 0.422 | 0.509 | 0.449 | 0.481 | 0.517 | 0.472 | 0.711 | 0.591 | 0.61 |
| NCI-H596 | 0.764 | 0.627 | 0.576 | 0.558 | 0.575 | 0.991 | 1.1 | 1.02 | 0.507 | 0.566 | 1.15 | 0.976 | 1.32 | 0.935 | 1.07 | 0.897 | 1.23 | 1.08 | 1.1 | 1.03 |
| NCI-H647 | 0.63 | 0.71 | 0.572 | 0.548 | 0.605 | 0.356 | 0.26 | 0.157 | 0.103 | 0.177 | 0.262 | 0.378 | 0.457 | 0.348 | 0.495 | 1.18 | 1.14 | 1.24 | 0.811 | 1.11 |
| NCI-H661 | 0.79 | 0.861 | 0.776 | 0.779 | 0.873 | 0.912 | 0.915 | 0.949 | 0.881 | 0.921 | 0.594 | 0.503 | 0.588 | 0.549 | 0.597 | 0.782 | 0.92 | 0.887 | 0.772 | 0.899 |
| NCI-H727 | 1.16 | 1.33 | 1.16 | 1.35 | 1.21 | 0.44 | 0.238 | 0.491 | – | 0.263 | 0.962 | 0.842 | 0.835 | 1.01 | 0.837 | 0.691 | 1.12 | 0.918 | 0.746 | 1.1 |
| NCI-H838 | 0.814 | 0.725 | 0.792 | 0.707 | 0.752 | 0.248 | 0.292 | 0.263 | 0.237 | 0.198 | 0.503 | 0.492 | 0.433 | 0.487 | 0.475 | 1.01 | 0.748 | 0.986 | 0.763 | 0.834 |
| NCI-H1355 | 0.661 | 0.575 | 0.69 | 0.604 | 0.542 | 0.642 | 0.496 | 0.516 | 0.401 | 0.409 | 0.35 | 0.421 | 0.32 | 0.339 | 0.373 | 1.22 | 1.3 | 1.15 | 1.24 | 1.26 |
